Laboratory results from PubChem BioAssay (NCI).
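Where inhibition never reached the appropriate level, the endpoint shown equals the highest concentration tested. Otherwise, values were interpolated linearly from a five-concentration, 48-hour dose response in 96-well plates. Definition used: TGI = concentration required for complete inhibition of growth.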 Where a SMILES comes first, the peptide text is derived from it. The star is where a group is joined. Boc = CC(C)(C)OC(=O)*

Assays:
Assay in all cases: NCI tumour cell line growth inhibition, 48 h
[1] = test system: SW-620 colon
[2] = test system: IGROV1 ovarian
[3] = test system: NCI-H522 lung

| Structure (SMILES) | TGI [1] [µM] | TGI [2] [µM] | TGI [3] [µM] |
| --- | --- | --- | --- |
| C/C(=N\NC(=S)NCCCNC(=S)N/N=C(\C)c1ccccn1)c1ccccn1 | > 100 | 37.4 | > 49.4 |
| COC(=O)C(CCSC)NC(=O)Cc1ccc(C(=O)c2ccccc2)cc1 (configuration not stated) | > 100 | > 100 | > 100 |
| COC(=O)C(Cc1c[nH]c2ccccc12)NC(=O)C(Cc1c[nH]c2ccccc12)NC(=O)C(Cc1c[nH]c2ccccc12)NC(=O)C(Cc1c[nH]c2ccccc12)NC(=O)C(Cc1c[nH]c2ccccc12)NC(=O)C(Cc1c[nH]c2ccccc12)NC(=O)C(Cc1c[nH]c2ccccc12)NC(=O)C(Cc1c[nH]c2ccccc12)NC(=O)OC(C)(C)C (configuration not stated) (Boc-WWWWWWWW-OMe; configuration not given here) | > 100 | > 100 | 60.3 |
| Nn1c(Cc2ccc([N+](=O)[O-])cc2)n[nH]c1=O | > 100 | > 100 | > 100 |
| O=C1CC(c2ccccc2)n2cccc21 (configuration not stated) | > 100 | > 100 | > 100 |
| O=c1/c(=C/c2ccc(-c3ccc(Cl)cc3Cl)o2)sc2n1[C@@H](c1ccc(Cl)cc1)C=C(c1cc(F)c(Cl)cc1Cl)N=2 | > 100 | > 100 | > 100 |
| CCOC(=O)C(SCCO)C(C(=O)OCC)n1ccc(=O)[nH]c1=O (configuration not stated) | 46.8 | > 95 | 22.7 |
| C=C(C)[C@@H]1CCC2=C[C@H](OC2=O)[C@@]2(C)C[C@@H]2C2=CC(C)=C(O2)[C@H]1O | > 75 | > 75 | 48.2 |
| CCCCCCCCCCNC(=O)CCC(NC(=O)c1ccc(N(C)Cc2cnc3nc(N)nc(N)c3n2)cc1)C(=O)NCCCCCCCCCC (configuration not stated) | 13.5 | 20.1 | 16.6 |
| Cc1nc2c(=O)n(C)ncc2[nH]1 | > 100 | > 100 |  |
| CCCC(=O)OC1C(CO)OC(n2cc(F)c(=O)[nH]c2=O)C1F (configuration not stated) | > 100 | > 100 | > 100 |
| COc1ccc(SCc2cc(OCc3ccccc3)c(OCc3ccccc3)c(OCc3ccccc3)c2)cc1 |  | 3.34 | 3.37 |
| C=C1CCC([N+](=O)[O-])[C@](C)(N=O)CC[C@@H]2C1CC2(C)C (some centres not stated) | 47.2 | 59.1 | 49.1 |
| CO/N=C(\C)CCC#Cc1ccccc1C(=O)OC | > 10 | > 10 |  |
| C=CCc1cccc2cc(C(=O)Nc3ccccn3)c(=N)oc12 | > 100 | > 100 |  |
| CCOC(=O)c1c(N2CCOCC2)[nH]c(=O)c(C(c2ccco2)c2c(O)c(C(=O)OCC)c(N3CCOCC3)[nH]c2=O)c1O | > 100 |  | > 100 |
| Nc1onc2c1Cc1c(noc1N)-c1ccccc1-2 | > 100 | > 100 | > 100 |
| C=C(Br)CNC(=O)CCC(=O)NCC(=C)Br | > 100 | > 100 | > 100 |
| CCC(=O)Nc1ccc(N2C(=O)C(Cl)C2c2ccc(SC)cc2)cc1 (configuration not stated) | > 100 | > 100 | > 100 |
